Legend:
Assay type in all cases: cell-based
[1] = test system: primary human mesenchymal stem cells (hMSCs); test: Chondrogenesis induction screen in primary human mesenchymal stem cells; details: 6 days, chondrogenic nodules, dose range 10-2700 nM
Protocol: The above synthesized compounds were screened using primary human mesenchymal stem cells (hMSCs) to determine their ability to induce chondrogenesis (process by which cartilage is developed).
Primary human mesenchymal stem cells (hMSCs) were purchased from Lonza (Walkersville, Md.) and expanded in Mesenchymal Stem Cell Growth Media (Lonza). Cells between passage 3 and 6 were used for the experiments.
Each compound was dissolved in DMSO as a 10 mM stock and used to prepare compound source plates. Serial dilution (1:3, 6-point dose-response curves from 2700 nM to 10 nM) and compound transfer was performed using the ECHO 550 (Labcyte, Sunnyvale, Calif.) into 96-well clear bottom assay plates (Greiner Bio-One) with appropriate DMSO backfill for a final DMSO concentration of 0.03%. hMSCs were plated at 20,000 cells/well in 250 μL/well Incomplete Chondrogenic Induction Medium (Lonza; DMEM, dexamethasone, ascorbate, insulin-transferrin-selenium [ITS supplement], gentamycin-amphotericin [GA-1000], sodium pyruvate, proline and L-glutamine). TGF-β3 (10 ng/mL) was used as a positive control for differentiation while negative control wells were treated with 75 nL DMSO for normalization and calculating EC50 values. Cells were incubated at 37° C. and 5% CO2 for 6 days. To image chondrogenic nodules, the cells were fixed using 4% formaldehyde (Electron Microscopy Sciences), and stained with 2 μg/mL Rhodamine B (Sigma-Aldrich) and 20 μM Nile Red (Sigma-Aldrich) [Johnson K., et.al, A Stem Cell—Based Approach to Cartilage Repair, Science, (2012), 336(6082), 717-721]. The nodules imaged (4 images per well at 4× magnification) by excitation at 531 nm and emission at 625 nm and quantified using the CellInsight CX5 (Thermo Scientific). Number of nodules in each well was normalized to the average of 3 DMSO treated wells on the same plate using Excel (Microsoft Inc.). The normalized averages (fold change over DMSO) of 3 replicate wells for each compound concentration were calculated. Due to solubility limitations of some of the compounds, curve fitting was incomplete leading to inaccurate EC50 determinations.
Using TGF-β3 as a positive control, the concentration of test compounds required to induce equivalent levels of chondrogenesis is reported. In addition, the maximum activity of each compound and the respective dose that each compound reached maximum chondrogenesis activity is reported.

[2] = test system: primary human fibroblasts derived from IPF patients (LL29 cells); test: Inhibition of fibrosis (αSMA) in TGF-β1 treated primary human fibroblasts from IPF patients; details: Fibroblast, 96 h, TGF-β1 20 ng/mL, 4 days, % αSMA positive cells
Procedure, shortened: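 IPF patient-derived LL29 lung fibroblasts in 1% FBS were treated with compound (11 points, 10 μM to 1.87 nM, 0.1% DMSO) and then 20 ng/mL TGF-β1 for 4 days at 37° C. Fraction of SYTOX-negative cells positive for αSMA was quantified by immunofluorescence imaging and normalized to TGF-β1 controls. EC50 came from non-linear regression over triplicate wells.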

[3] = test system: Wnt activity (SW480 colon carcinoma cells stably expressing the Sp5-Luc reporter gene); test: Sp5-Luc reporter gene screening assay for Wnt activity in SW480 cells; details: Homo sapiens, 42 h incubation, luminescence
Procedure, shortened: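 SW480 cells stably carrying an Sp5 promoter (eight TCF/LEF sites)-luciferase reporter were plated overnight in 10% FCS medium. BrightGlo luminescence was normalised to DMSO wells, and IC50 was obtained by four-parameter fit.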

| SMILES | Conc (nM) of Max. activity [1] | EC50 [2] | IC50 [3] |
| --- | --- | --- | --- |
| CC(C)CC(=O)Nc1cncc(-c2ccc3[nH]nc(-c4nc5c(-c6cccc(F)c6)ccnc5[nH]4)c3c2)c1 [Compound 2, N-(5-(3-(7-(3-Fluorophenyl)-3H-imidazo[4,5-b]pyridin-2-yl)-1H-indazol-5-yl)pyridin-3-yl)-3-methylbutanamide] | 30 nM | 0.041 nM | 2 nM |
| CN(C)c1cncc(-c2ccc3[nH]nc(-c4nc5c(-c6cccc(F)c6)ccnc5[nH]4)c3c2)c1 [Compound 7, 5-(3-(7-(3-Fluorophenyl)-3H-imidazo[4,5-b]pyridin-2-yl)-1H-indazol-5-yl)-N,N-dimethylpyridin-3-amine] | 100 nM | 0.066 nM | < 1 nM |
| Fc1cccc(-c2ccnc3[nH]c(-c4n[nH]c5ccc(-c6cncc(CN7CCC(F)(F)C7)c6)cc45)nc23)c1 [Compound 25, 2-(5-(5-((3,3-Difluoropyrrolidin-1-yl)methyl)pyridin-3-yl)-1H-indazol-3-yl)-7-(3-fluorophenyl)-3H-imidazo[4,5-b]pyridine] | 30 nM | 0.099 nM | < 1 nM |
| Nc1cncc(-c2ccc3[nH]nc(-c4nc5c(-c6ccccc6F)ccnc5[nH]4)c3c2)c1 [Compound 55, 5-(3-(7-(2-Fluorophenyl)-3H-imidazo[4,5-b]pyridin-2-yl)-1H-indazol-5-yl)pyridin-3-amine] | 30 nM | 0.017 nM | 1.8 nM |
| c1cncc(-c2ccc3[nH]nc(-c4nc5c(-c6cccnc6)ccnc5[nH]4)c3c2)c1 [Compound 82, 7-(Pyridin-3-yl)-2-(5-(pyridin-3-yl)-1H-indazol-3-yl)-3H-imidazo[4,5-b]pyridine] | 10 nM | 0.303 nM | 3.5 nM |
| Cc1ccncc1-c1ccc2[nH]nc(-c3nc4c(-c5ccncc5)ccnc4[nH]3)c2c1 [Compound 109, 2-(5-(4-Methylpyridin-3-yl)-1H-indazol-3-yl)-7-(pyridin-4-yl)-3H-imidazo[4,5-b]pyridine] | 30 nM | 0.781 nM | 13.7 nM |
| CCCCC(=O)Nc1cncc(-c2ccc3[nH]nc(-c4nc5c(-c6ccccn6)ccnc5[nH]4)c3c2)c1 [Compound 148, N-(5-(3-(7-(Pyridin-2-yl)-3H-imidazo[4,5-b]pyridin-2-yl)-1H-indazol-5-yl)pyridin-3-yl)pentanamide] | 100 nM | 0.085 nM | 8.1 nM |
| Cc1cn(-c2ccnc3[nH]c(-c4n[nH]c5ccc(-c6cncc(NC(=O)CC(C)C)c6)cc45)nc23)cn1 [Compound 184, 3-Methyl-N-(5-(3-(7-(4-methyl-1H-imidazol-1-yl)-3H-imidazo[4,5-b]pyridin-2-yl)-1H-indazol-5-yl)pyridin-3-yl)butanamide] | 300 nM | 0.142 nM | 2.3 nM |
| CCCC(=O)Nc1cncc(-c2ccc3[nH]nc(-c4nc5c(-c6ccsc6)ccnc5[nH]4)c3c2)c1 [Compound 277, N-(5-(3-(7-(Thiophen-3-yl)-3H-imidazo[4,5-b]pyridin-2-yl)-1H-indazol-5-yl)pyridin-3-yl)butyramide] | 30 nM | 0.016 nM | 1 nM |
| CC(C)Nc1cncc(-c2ccc3[nH]nc(-c4nc5c(-c6ccoc6)ccnc5[nH]4)c3c2)c1 [Compound 298, 5-(3-(7-(Furan-3-yl)-3H-imidazo[4,5-b]pyridin-2-yl)-1H-indazol-5-yl)-N-isopropylpyridin-3-amine] | 30 nM | 0.102 nM | 5 nM |
| CC(C)(C)C(=O)Nc1cncc(-c2ccc3[nH]nc(-c4nc5c(-c6ccc(F)s6)ccnc5[nH]4)c3c2)c1 [Compound 346, N-(5-(3-(7-(5-Fluorothiophen-2-yl)-3H-imidazo[4,5-b]pyridin-2-yl)-1H-indazol-5-yl)pyridin-3-yl)pivalamide] | 300 nM | 0.009 nM | 0.4 nM |
| Cc1ccc(-c2ccnc3[nH]c(-c4n[nH]c5ccc(-c6cncc(NC(=O)C(C)C)c6)cc45)nc23)s1 [Compound 373, N-(5-(3-(7-(5-Methylthiophen-2-yl)-3H-imidazo[4,5-b]pyridin-2-yl)-1H-indazol-5-yl)pyridin-3-yl)isobutyramide] | 30 nM | 0.045 nM | 6.4 nM |
| CCCC(=O)Nc1cncc(-c2ccc3[nH]nc(-c4nc5c(-c6cc(F)cc(CNS(C)(=O)=O)c6)ccnc5[nH]4)c3c2)c1 [Compound 433, N-(5-(3-(7-(3-Fluoro-5-(methylsulfonamidomethyl)phenyl)-3H-imidazo[4,5-b]pyridin-2-yl)-1H-indazol-5-yl)pyridin-3-yl)butyramide] | 2700 nM | > 10 nM | 3 nM |
| CCCCC(=O)Nc1cncc(-c2ccc3[nH]nc(-c4nc5c(-c6cc(F)cc(NCCN(C)C)c6)ccnc5[nH]4)c3c2)c1 [Compound 460, N-(5-(3-(7-(3-((2-(Dimethylamino)ethyl)amino)-5-fluorophenyl)-3H-imidazo[4,5-b]pyridin-2-yl)-1H-indazol-5-yl)pyridin-3-yl)pentanamide] | 30 nM | 0.111 nM | 11.6 nM |
| Fc1cccc(-c2ccnc3[nH]c(-c4n[nH]c5ccc(-c6cn[nH]c6)cc45)nc23)c1 [Compound 1875, 2-(5-(1H-Pyrazol-4-yl)-1H-indazol-3-yl)-7-(3-fluorophenyl)-3H-imidazo[4,5-b]pyridine] | 2700 nM | 0.009 nM | 5 nM |
| COc1cncc(-c2ccc3[nH]nc(-c4nc5c(-c6cccc(F)c6)ccnc5[nH]4)c3c2)c1 [Compound 1884, 7-(3-Fluorophenyl)-2-(5-(5-methoxypyridin-3-yl)-1H-indazol-3-yl)-3H-imidazo[4,5-b]pyridine] | – | 9.99 nM | > 10000 nM |
| Oc1cncc(-c2ccc3[nH]nc(-c4nc5c(-c6cccc(F)c6)ccnc5[nH]4)c3c2)c1 [Compound 1885, 5-(3-(7-(3-Fluorophenyl)-3H-imidazo[4,5-b]pyridin-2-yl)-1H-indazol-5-yl)pyridin-3-ol] | 100 nM | 0.009 nM | 11 nM |
| O=C(CC1CCCCC1)Nc1cncc(-c2ccc3[nH]nc(-c4nc5c(-c6cccc(F)c6)ccnc5[nH]4)c3c2)c1 [Compound 1887, 2-Cyclohexyl-N-(5-(3-(7-(3-fluorophenyl)-3H-imidazo[4,5-b]pyridin-2-yl)-1H-indazol-5-yl)pyridin-3-yl)acetamide] | – | 9.99 nM | > 10000 nM |
| Fc1cccc(-c2ccnc3[nH]c(-c4n[nH]c5ccc(-c6ccncc6)cc45)nc23)c1 [Compound 1888, 7-(3-Fluorophenyl)-2-(5-(pyridin-4-yl)-1H-indazol-3-yl)-3H-imidazo[4,5-b]pyridine] | – | 9.99 nM | > 10000 nM |
| Fc1cccc(-c2ccnc3[nH]c(-c4n[nH]c5ccc(-c6ccccn6)cc45)nc23)c1 [Compound 1889, 7-(3-Fluorophenyl)-2-(5-(pyridin-2-yl)-1H-indazol-3-yl)-3H-imidazo[4,5-b]pyridine] | – | 0.018 nM | > 1000 nM |
| Fc1cccc(-c2ccnc3[nH]c(-c4n[nH]c5ccc(-c6cnccn6)cc45)nc23)c1 [Compound 1890, 7-(3-Fluorophenyl)-2-(5-(pyrazin-2-yl)-1H-indazol-3-yl)-3H-imidazo[4,5-b]pyridine] | – | 0.167 nM | 39 nM |
| CN(C)CC(=O)Nc1cncc(-c2ccc3[nH]nc(-c4nc5c(-c6cccc(F)c6)ccnc5[nH]4)c3c2)c1 [Compound 2373, 2-(Dimethylamino)-N-(5-(3-(7-(3-fluorophenyl)-3H-imidazo[4,5-b]pyridin-2-yl)-1H-indazol-5-yl)pyridin-3-yl)acetamide] | – | 0.233 nM | 91 nM |

Reference: patent US10280166B2, “2-(1H-indazol-3-yl)-3H-imidazo[4,5-B]pyridine and therapeutic uses thereof” (Samumed, LLC, priority 2014, dated 2019)
